# Test system: participants with SSc-RP
# Assay: Average duration of weekly symptomatic RP attacks (minutes)
# Format: in vivo, human
# Conditions: ITT Part A; for Average duration of weekly symptomatic RP attacks, Baseline, Max / Average duration of weekly symptomatic RP attacks, Baseline, Mean / Average duration of weekly symptomatic RP attacks, Baseline, Median / Average duration of weekly symptomatic RP attacks, Baseline, Min / Average duration of weekly symptomatic RP attacks, Baseline, Q1 / Average duration of weekly symptomatic RP attacks, Baseline, Q3 / Average duration of weekly symptomatic RP attacks, Baseline: last 7 days of screening period
# Description: The relevant metrics measured by this tool daily are: • Study medication • SSc-RP symptoms (Reporting an attack including duration of attack) • Severity of the attack considering all symptoms of the attack e.g. tingling, numbness, pain, color changes (VAS 0-10 cm scale) • Participant's location at the time of the attack (inside home/outside home) • Selecting symptoms experienced during the attack (tingling, numbness, pain, color changes, other) • Pain rating during the attack (11-point Likert scale) • The RCS based on how much difficulty participants had with Raynaud's today, how many attacks the participant had, and how long they lasted. Participants will also be asked to consider how much pain, numbness, or other symptoms the Raynaud's caused in fingers (including painful sores), and how much the Raynaud's alone affected the use of hands today (VAS 0-10 cm scale).
# The absolute change in average duration of weekly RP attacks from baseline to the end of each dosing period was and will be a secondary outcome variable. The sponsor-developed participant-informed diary was and will be used to record data. Average duration of weekly RP attacks is defined as the total duration of RP attacks divided by total number of RP attacks within the last 7 days of each dosing period. Total duration of RP attacks during the last 7 days of screening period divided by the total number of RP attacks will be used as baseline for the analysis of all periods. The variable will be calculated similar to frequency data as before.
# [1] = Excluding Outliers, Baseline RCS subgroup 1 (Table B-4, stratum not given), last 7 days of dosing period, listed as Cilnidipine 10 mg
# [2] = Excluding Outliers, Baseline RCS subgroup 1 (Table B-4, stratum not given), last 7 days of dosing period, listed as Cilnidipine 20 mg
# [3] = Excluding Outliers, Baseline RCS subgroup 1 (Table B-4, stratum not given), last 7 days of dosing period, listed as Pooled Cilnidipine
# [4] = Excluding Outliers, Baseline RCS subgroup 1 (Table B-4, stratum not given), listed as Cilnidipine 10 mg
# [5] = Excluding Outliers, Baseline RCS subgroup 1 (Table B-4, stratum not given), listed as Cilnidipine 20 mg
# [6] = Excluding Outliers, Baseline RCS subgroup 1 (Table B-4, stratum not given), listed as Pooled Cilnidipine
# [7] = Baseline RCS subgroup 1 (Table B-3, stratum not given), last 7 days of dosing period, listed as Cilnidipine 10 mg
# [8] = Baseline RCS subgroup 1 (Table B-3, stratum not given), last 7 days of dosing period, listed as Cilnidipine 20 mg
# [9] = Baseline RCS subgroup 1 (Table B-3, stratum not given), last 7 days of dosing period, listed as Pooled Cilnidipine
# [10] = Baseline RCS subgroup 1 (Table B-3, stratum not given), listed as Cilnidipine 10 mg
# [11] = Baseline RCS subgroup 1 (Table B-3, stratum not given), listed as Cilnidipine 20 mg
# [12] = Baseline RCS subgroup 1 (Table B-3, stratum not given), listed as Pooled Cilnidipine
structure (smiles),measurement,setting,value
"COCCOC(=O)C1=C(C)NC(C)=C(C(=O)OC/C=C/c2ccccc2)C1c1cccc([N+](=O)[O-])c1 (stereo not drawn) [Cilnidipine, 1,4-dihydro-2,6-dimethyl,4-(3-nitrophenyl)-3,5-pyridinedicarboxylic acid 2-methoxyethyl (2 E)-3-phenyl-2-propenyl ester]","Average Duration of weekly symptomatic RP attacks, Max",[1],"31.6, 31.6 minutes"
same,"Average Duration of weekly symptomatic RP attacks, Mean",[1],31.64 min
same,"Average Duration of weekly symptomatic RP attacks, Min",[1],"31.6, 31.6 minutes"
same,"Average Duration of weekly symptomatic RP attacks, Q3",[1],"31.64, 31.64 minutes"
same,"Average duration of weekly symptomatic RP attacks, Change from Baseline, Max",[1],"−16.7, −16.7 minutes"
same,"Average duration of weekly symptomatic RP attacks, Change from Baseline, Min",[1],"−16.7, −16.7 minutes"
same,"Average duration of weekly symptomatic RP attacks, Change from Baseline, Q1",[1],"−16.74, −16.74 minutes"
same,"Average duration of weekly symptomatic RP attacks, Percent Change from Baseline, Max",[1],"−34.6, −34.6%"
same,Average Duration of weekly symptomatic RP attacks,[2],3.0 min
same,"Average Duration of weekly symptomatic RP attacks, Max",[2],30.5 min
same,"Average Duration of weekly symptomatic RP attacks, Q1",[2],3.00 min
same,"Average Duration of weekly symptomatic RP attacks, Q3",[2],30.45 min
same,"Average duration of weekly symptomatic RP attacks, Change from Baseline",[2],-10.3 min
same,"Average duration of weekly symptomatic RP attacks, Change from Baseline, Max",[2],4.1 min
same,"Average duration of weekly symptomatic RP attacks, Change from Baseline, Mean",[2],-3.13 min
same,"Average duration of weekly symptomatic RP attacks, Change from Baseline, Median",[2],-3.13 min
same,"Average duration of weekly symptomatic RP attacks, Change from Baseline, Q1",[2],-10.33 min
same,"Average duration of weekly symptomatic RP attacks, Change from Baseline, Q3",[2],4.07 min
same,"Average duration of weekly symptomatic RP attacks, Percent Change from Baseline, Max",[2],15.4%
same,"Average duration of weekly symptomatic RP attacks, Percent Change from Baseline, Mean",[2],−31.05%
same,"Average duration of weekly symptomatic RP attacks, Percent Change from Baseline, Median",[2],−31.05%
same,"Average duration of weekly symptomatic RP attacks, Percent Change from Baseline, Min",[2],−77.5%
same,"Average duration of weekly symptomatic RP attacks, Percent Change from Baseline, Q1",[2],−77.50%
same,"Average duration of weekly symptomatic RP attacks, Percent Change from Baseline, Q3",[2],15.41%
same,Average Duration of weekly symptomatic RP attacks,[3],3.0 min
same,"Average Duration of weekly symptomatic RP attacks, Max",[3],31.6 min
same,"Average Duration of weekly symptomatic RP attacks, Q1",[3],3.00 min
same,"Average duration of weekly symptomatic RP attacks, Change from Baseline",[3],-16.7 min
same,"Average duration of weekly symptomatic RP attacks, Change from Baseline, Max",[3],4.1 min
same,"Average duration of weekly symptomatic RP attacks, Change from Baseline, Mean",[3],-7.67 min
same,"Average duration of weekly symptomatic RP attacks, Change from Baseline, Q1",[3],-16.74 min
same,"Average duration of weekly symptomatic RP attacks, Change from Baseline, Q3",[3],4.07 min
same,"Average duration of weekly symptomatic RP attacks, Percent Change from Baseline, Max",[3],15.4%
same,"Average duration of weekly symptomatic RP attacks, Percent Change from Baseline, Mean",[3],−32.23%
same,"Average duration of weekly symptomatic RP attacks, Percent Change from Baseline, Median",[3],−34.60%
same,"Average duration of weekly symptomatic RP attacks, Percent Change from Baseline, Min",[3],−77.5%
same,"Average duration of weekly symptomatic RP attacks, Percent Change from Baseline, Q1",[3],−77.50%
same,"Average duration of weekly symptomatic RP attacks, Percent Change from Baseline, Q3",[3],15.41%
same,"Average duration of weekly symptomatic RP attacks, Baseline, Max",[4],"48.4, 48.4 minutes"
same,"Average duration of weekly symptomatic RP attacks, Baseline, Mean",[4],48.38 min
same,"Average duration of weekly symptomatic RP attacks, Baseline, Median",[4],48.38 min
same,"Average duration of weekly symptomatic RP attacks, Baseline, Min",[4],"48.4, 48.4 minutes"
same,"Average duration of weekly symptomatic RP attacks, Baseline, Q1",[4],"48.38, 48.38 minutes"
same,"Average duration of weekly symptomatic RP attacks, Baseline, Q3",[4],"48.38, 48.38 minutes"
same,"Average duration of weekly symptomatic RP attacks, Baseline",[5],13.3 min
same,"Average duration of weekly symptomatic RP attacks, Baseline, Max",[5],26.4 min
same,"Average duration of weekly symptomatic RP attacks, Baseline, Mean",[5],19.86 min
same,"Average duration of weekly symptomatic RP attacks, Baseline, Median",[5],19.86 min
same,"Average duration of weekly symptomatic RP attacks, Baseline, Q1",[5],13.33 min
same,"Average duration of weekly symptomatic RP attacks, Baseline, Q3",[5],26.39 min
same,"Average duration of weekly symptomatic RP attacks, Baseline",[6],13.3 min
same,"Average duration of weekly symptomatic RP attacks, Baseline, Max",[6],48.4 min
same,"Average duration of weekly symptomatic RP attacks, Baseline, Mean",[6],29.37 min
same,"Average duration of weekly symptomatic RP attacks, Baseline, Median",[6],26.39 min
same,"Average duration of weekly symptomatic RP attacks, Baseline, Q1",[6],13.33 min
same,"Average duration of weekly symptomatic RP attacks, Baseline, Q3",[6],48.38 min
same,"Average Duration of weekly symptomatic RP attacks, Max",[7],"31.6, 31.6 minutes"
same,"Average Duration of weekly symptomatic RP attacks, Min",[7],"31.6, 31.6 minutes"
same,"Average duration of weekly symptomatic RP attacks, Change from Baseline, Max",[7],"−16.7, −16.7 minutes"
same,"Average duration of weekly symptomatic RP attacks, Change from Baseline, Q1",[7],"−16.74, −16.74 minutes"
same,"Average duration of weekly symptomatic RP attacks, Change from Baseline, Q3",[7],"−16.74, −16.74 minutes"
same,"Average duration of weekly symptomatic RP attacks, Percent Change from Baseline, Max",[7],"−34.6, −34.6%"
same,"Average duration of weekly symptomatic RP attacks, Percent Change from Baseline, Min",[7],"−34.6, −34.6%"
same,"Average duration of weekly symptomatic RP attacks, Percent Change from Baseline, Q3",[7],"−34.60, −34.60%"
same,Average Duration of weekly symptomatic RP attacks,[8],3.0 min
same,"Average Duration of weekly symptomatic RP attacks, Max",[8],30.5 min
same,"Average Duration of weekly symptomatic RP attacks, Q1",[8],3.00 min
same,"Average Duration of weekly symptomatic RP attacks, Q3",[8],30.45 min
same,"Average duration of weekly symptomatic RP attacks, Change from Baseline",[8],-10.3 min
same,"Average duration of weekly symptomatic RP attacks, Change from Baseline, Max",[8],4.1 min
same,"Average duration of weekly symptomatic RP attacks, Change from Baseline, Q1",[8],-10.33 min
same,"Average duration of weekly symptomatic RP attacks, Change from Baseline, Q3",[8],4.07 min
same,"Average duration of weekly symptomatic RP attacks, Percent Change from Baseline, Max",[8],15.4%
same,"Average duration of weekly symptomatic RP attacks, Percent Change from Baseline, Min",[8],−77.5%
same,"Average duration of weekly symptomatic RP attacks, Percent Change from Baseline, Q1",[8],−77.50%
same,Average Duration of weekly symptomatic RP attacks,[9],3.0 min
same,"Average Duration of weekly symptomatic RP attacks, Max",[9],31.6 min
same,"Average Duration of weekly symptomatic RP attacks, Q1",[9],3.00 min
same,"Average Duration of weekly symptomatic RP attacks, Q3",[9],31.64 min
same,"Average duration of weekly symptomatic RP attacks, Change from Baseline",[9],-16.7 min
same,"Average duration of weekly symptomatic RP attacks, Change from Baseline, Max",[9],4.1 min
same,"Average duration of weekly symptomatic RP attacks, Change from Baseline, Q1",[9],-16.74 min
same,"Average duration of weekly symptomatic RP attacks, Change from Baseline, Q3",[9],4.07 min
same,"Average duration of weekly symptomatic RP attacks, Percent Change from Baseline, Max",[9],15.4%
same,"Average duration of weekly symptomatic RP attacks, Percent Change from Baseline, Median",[9],−34.60%
same,"Average duration of weekly symptomatic RP attacks, Percent Change from Baseline, Min",[9],−77.5%
same,"Average duration of weekly symptomatic RP attacks, Percent Change from Baseline, Q1",[9],−77.50%
same,"Average duration of weekly symptomatic RP attacks, Baseline, Max",[10],"48.4, 48.4 minutes"
same,"Average duration of weekly symptomatic RP attacks, Baseline, Mean",[10],48.38 min
same,"Average duration of weekly symptomatic RP attacks, Baseline, Median",[10],48.38 min
same,"Average duration of weekly symptomatic RP attacks, Baseline, Min",[10],"48.4, 48.4 minutes"
same,"Average duration of weekly symptomatic RP attacks, Baseline, Q1",[10],"48.38, 48.38 minutes"
same,"Average duration of weekly symptomatic RP attacks, Baseline, Q3",[10],"48.38, 48.38 minutes"
same,"Average duration of weekly symptomatic RP attacks, Baseline",[11],13.3 min
same,"Average duration of weekly symptomatic RP attacks, Baseline, Max",[11],26.4 min
same,"Average duration of weekly symptomatic RP attacks, Baseline, Mean",[11],19.86 min
same,"Average duration of weekly symptomatic RP attacks, Baseline, Median",[11],19.86 min
same,"Average duration of weekly symptomatic RP attacks, Baseline, Q1",[11],13.33 min
same,"Average duration of weekly symptomatic RP attacks, Baseline, Q3",[11],26.39 min
same,"Average duration of weekly symptomatic RP attacks, Baseline",[12],13.3 min
same,"Average duration of weekly symptomatic RP attacks, Baseline, Max",[12],48.4 min
same,"Average duration of weekly symptomatic RP attacks, Baseline, Mean",[12],29.37 min
same,"Average duration of weekly symptomatic RP attacks, Baseline, Median",[12],26.39 min
same,"Average duration of weekly symptomatic RP attacks, Baseline, Q1",[12],13.33 min
same,"Average duration of weekly symptomatic RP attacks, Baseline, Q3",[12],48.38 min

# Reference: patent US20240398771A1, “TREATMENT OF SCLERODERMA AND RAYNAUD'S SYNDROME” (Aisa Pharma, Inc., priority 2023, published 2024)
